Experimental data published in patent US11306092B2, “Amino indole compounds useful as TLR inhibitors” (BRISTOL-MYERS SQUIBB COMPANY, priority 2017, dated 2022).

Experiments:
Type in all cases: cell-based
human TLR7 = target: T1, human TLR7 (Homo sapiens, UniProt Q9NYK1); test: TLR7 inhibition reporter assay (HEK-Blue SEAP reporter); conditions: HEK-Blue cells overexpressing human TLR7; gardiquimod 7.5 μM; 22 hour incubation
T1 construct: host or cells: HEK-Blue cells
T1 sequence (Q9NYK1 27-1049): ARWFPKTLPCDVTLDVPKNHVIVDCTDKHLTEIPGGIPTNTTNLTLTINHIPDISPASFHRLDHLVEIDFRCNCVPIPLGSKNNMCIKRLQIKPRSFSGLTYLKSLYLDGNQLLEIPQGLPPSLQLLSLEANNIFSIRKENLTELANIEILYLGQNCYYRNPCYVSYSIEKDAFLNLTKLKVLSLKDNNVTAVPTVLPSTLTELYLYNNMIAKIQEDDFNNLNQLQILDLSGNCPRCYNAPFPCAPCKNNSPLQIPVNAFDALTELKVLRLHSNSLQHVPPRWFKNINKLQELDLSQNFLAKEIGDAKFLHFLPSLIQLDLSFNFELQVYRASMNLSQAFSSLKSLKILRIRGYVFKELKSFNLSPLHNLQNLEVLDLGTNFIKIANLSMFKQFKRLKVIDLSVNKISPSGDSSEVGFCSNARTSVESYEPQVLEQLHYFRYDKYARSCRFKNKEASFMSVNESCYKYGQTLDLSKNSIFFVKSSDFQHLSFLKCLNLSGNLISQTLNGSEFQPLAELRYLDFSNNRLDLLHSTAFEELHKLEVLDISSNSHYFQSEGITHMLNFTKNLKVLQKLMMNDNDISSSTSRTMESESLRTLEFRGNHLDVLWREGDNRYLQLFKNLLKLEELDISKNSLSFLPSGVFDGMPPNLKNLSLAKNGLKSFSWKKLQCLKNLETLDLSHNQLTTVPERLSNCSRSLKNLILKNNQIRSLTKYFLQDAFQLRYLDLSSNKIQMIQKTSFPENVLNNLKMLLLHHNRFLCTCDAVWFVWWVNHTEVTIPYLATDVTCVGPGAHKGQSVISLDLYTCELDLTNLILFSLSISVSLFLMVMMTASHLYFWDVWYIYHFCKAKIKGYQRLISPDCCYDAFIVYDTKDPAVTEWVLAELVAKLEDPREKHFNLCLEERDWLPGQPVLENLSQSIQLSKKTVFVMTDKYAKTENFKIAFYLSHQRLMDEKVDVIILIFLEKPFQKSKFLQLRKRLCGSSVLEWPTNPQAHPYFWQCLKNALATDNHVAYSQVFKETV
Outline: (§1)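 Agonists used: gardiquimod 7.5 μM (TLR7), R848 15.9 μM (TLR8), ODN2006 5 nM (TLR9), added after 30 min room-temperature compound pre-treatment (0.05 nM–50 μM) of receptor-overexpressing HEK-Blue cells. SEAP reporter (NF-κB/AP-1 driven) read after 22 h at 37 °C; inhibition scaled between agonist+DMSO and reference-inhibitor wells.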

human TLR8 = target: T2, human TLR8 (Homo sapiens, UniProt Q9NR97); test: TLR8 inhibition reporter assay (HEK-Blue SEAP reporter); conditions: HEK-Blue cells overexpressing human TLR8; R848 15.9 μM; 22 hour incubation
T2 construct: host or cells: HEK-Blue cells
T2 sequence (Q9NR97 27-1041): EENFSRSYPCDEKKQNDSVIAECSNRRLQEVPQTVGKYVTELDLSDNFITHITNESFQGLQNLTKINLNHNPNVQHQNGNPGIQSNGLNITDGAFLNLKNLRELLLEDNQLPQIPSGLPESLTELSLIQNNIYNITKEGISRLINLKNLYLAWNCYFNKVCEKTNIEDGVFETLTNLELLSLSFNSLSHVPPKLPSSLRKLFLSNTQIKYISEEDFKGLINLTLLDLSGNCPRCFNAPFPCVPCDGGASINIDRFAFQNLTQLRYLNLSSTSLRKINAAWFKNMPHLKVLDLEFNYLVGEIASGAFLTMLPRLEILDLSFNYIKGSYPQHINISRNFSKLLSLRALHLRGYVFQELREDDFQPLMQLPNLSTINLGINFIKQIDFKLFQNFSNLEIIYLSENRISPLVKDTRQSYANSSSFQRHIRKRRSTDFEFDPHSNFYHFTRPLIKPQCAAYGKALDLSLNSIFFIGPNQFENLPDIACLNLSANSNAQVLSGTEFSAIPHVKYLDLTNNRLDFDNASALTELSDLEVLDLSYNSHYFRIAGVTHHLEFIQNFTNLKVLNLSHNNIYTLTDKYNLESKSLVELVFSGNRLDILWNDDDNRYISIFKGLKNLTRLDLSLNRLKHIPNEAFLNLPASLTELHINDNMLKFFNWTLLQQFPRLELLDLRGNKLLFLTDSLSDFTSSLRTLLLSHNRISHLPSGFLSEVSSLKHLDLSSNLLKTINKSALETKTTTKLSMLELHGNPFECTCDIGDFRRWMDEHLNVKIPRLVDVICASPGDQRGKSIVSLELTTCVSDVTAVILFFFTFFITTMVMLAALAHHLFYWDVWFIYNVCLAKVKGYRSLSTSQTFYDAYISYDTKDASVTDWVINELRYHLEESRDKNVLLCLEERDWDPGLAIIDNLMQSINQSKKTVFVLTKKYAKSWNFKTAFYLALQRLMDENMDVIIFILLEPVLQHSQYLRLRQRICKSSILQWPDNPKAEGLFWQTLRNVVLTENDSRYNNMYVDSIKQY
Outline: as §1

human TLR9 = target: T3, human TLR9 (Homo sapiens, UniProt Q9NR96); test: TLR9 inhibition reporter assay (HEK-Blue SEAP reporter); conditions: HEK-Blue cells overexpressing human TLR9; ODN2006 5 nM; 22 hour incubation
T3 construct: host or cells: HEK-Blue cells
T3 sequence (Q9NR96 26-1032): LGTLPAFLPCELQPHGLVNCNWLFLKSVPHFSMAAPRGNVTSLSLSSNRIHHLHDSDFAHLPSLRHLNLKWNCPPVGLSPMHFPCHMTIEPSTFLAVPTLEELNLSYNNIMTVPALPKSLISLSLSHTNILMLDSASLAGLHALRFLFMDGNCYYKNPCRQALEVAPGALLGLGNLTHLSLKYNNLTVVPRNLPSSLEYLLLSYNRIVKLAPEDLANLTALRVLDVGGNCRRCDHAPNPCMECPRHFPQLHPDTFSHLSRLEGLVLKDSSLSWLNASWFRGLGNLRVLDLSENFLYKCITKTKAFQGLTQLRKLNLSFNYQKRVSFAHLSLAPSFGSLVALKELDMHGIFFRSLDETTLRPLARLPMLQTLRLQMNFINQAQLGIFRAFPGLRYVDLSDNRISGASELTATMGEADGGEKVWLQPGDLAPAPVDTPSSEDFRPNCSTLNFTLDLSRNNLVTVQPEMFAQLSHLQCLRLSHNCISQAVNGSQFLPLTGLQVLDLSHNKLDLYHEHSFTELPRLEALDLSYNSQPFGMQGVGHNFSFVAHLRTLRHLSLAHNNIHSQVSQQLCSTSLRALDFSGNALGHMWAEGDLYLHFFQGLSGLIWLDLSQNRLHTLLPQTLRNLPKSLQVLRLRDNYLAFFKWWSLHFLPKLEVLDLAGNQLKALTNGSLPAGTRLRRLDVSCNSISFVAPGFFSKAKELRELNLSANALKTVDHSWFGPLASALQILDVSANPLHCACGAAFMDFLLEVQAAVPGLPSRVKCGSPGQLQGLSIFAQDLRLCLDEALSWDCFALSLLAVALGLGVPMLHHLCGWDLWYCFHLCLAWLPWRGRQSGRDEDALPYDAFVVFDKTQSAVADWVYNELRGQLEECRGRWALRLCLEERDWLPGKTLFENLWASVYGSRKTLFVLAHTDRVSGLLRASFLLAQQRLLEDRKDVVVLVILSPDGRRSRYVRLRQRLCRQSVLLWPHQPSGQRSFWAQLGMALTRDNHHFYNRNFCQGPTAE
Outline: as §1

Compound: COc1ccc(-c2[nH]c3ccc(N4CCC(N5CCN(C(C)C)CC5)CC4)cc3c2C(C)C)cc1OC [Example 85, 2-(3,4-dimethoxyphenyl)-3-isopropyl-5-(4-(4-isopropylpiperazin-1-yl)piperidin-1-yl)-1H-indole]
- IC50 (human TLR7): 23 nM
- IC50 (human TLR8): 16 nM
- IC50 (human TLR9): 637 nM

Compound: COc1ccc(-c2[nH]c3ccc(N4CCC(NCCN5CCOCC5)CC4)cc3c2C(C)C)cc1OC [Example 86, 1-(2-(3,4-dimethoxyphenyl)-3-isopropyl-1H-indol-5-yl)-N-(2-morpholinoethyl)piperidin-4-amine]
- IC50 (human TLR7): 41 nM
- IC50 (human TLR8): 4.8 nM
- IC50 (human TLR9): 2800 nM

Compound: COc1ccc(-c2[nH]c3ccc(N4CCC(NC5CCN(C(C)=O)CC5)CC4)cc3c2C(C)C)cc1OC [Example 89, 1-(4-((1-(2-(3,4-dimethoxyphenyl)-3-isopropyl-1H-indol-5-yl)piperidin-4-yl)amino)piperidin-1-yl) ethan-1-one]
- IC50 (human TLR7): 31 nM
- IC50 (human TLR8): 5 nM
- IC50 (human TLR9): 2000 nM

Compound: COc1ccc(-c2[nH]c3ccc(N4CCC(N5CCN(C(C)(C)C)CC5)CC4)cc3c2C(C)C)cc1OC [Example 90, 5-(4-(4-(tert-butyl)piperazin-1-yl)piperidin-1-yl)-2-(3,4-dimethoxyphenyl)-3-isopropyl-1H-indole]
- IC50 (human TLR7): 37 nM
- IC50 (human TLR8): 19 nM
- IC50 (human TLR9): 809 nM

Compound: COc1ccc(-c2[nH]c3ccc(N4CCC(N5CCN(CC(C)C)CC5)CC4)cc3c2C(C)C)cc1OC [Example 91, 2-(3,4-dimethoxyphenyl)-5-(4-(4-isobutylpiperazin-1-yl)piperidin-1-yl)-3-isopropyl-1H-indole]
- IC50 (human TLR7): 116 nM
- IC50 (human TLR8): 92 nM
- IC50 (human TLR9): 1940 nM

Compound: COCCN1CCN(C2CCN(c3ccc4[nH]c(-c5ccc(OC)c(OC)c5)c(C(C)C)c4c3)CC2)CC1 [Example 92, 2-(3,4-dimethoxyphenyl)-3-isopropyl-5-(4-(4-(2-methoxyethyl)piperazin-1-yl)piperidin-1-yl)-1H-indole]
- IC50 (human TLR7): 19 nM
- IC50 (human TLR8): 12 nM
- IC50 (human TLR9): 1750 nM

Compound: COc1ccc(-c2[nH]c3ccc(N4CCC(N5CCN(c6ccncc6)CC5)CC4)cc3c2C(C)C)cc1OC [Example 94, 2-(3,4-dimethoxyphenyl)-3-isopropyl-5-(4-(4-(pyridin-4-yl)piperazin-1-yl)piperidin-1-yl)-1H-indole]
- IC50 (human TLR7): 33 nM
- IC50 (human TLR8): 3.5 nM
- IC50 (human TLR9): 816 nM

Compound: COc1ccc(-c2[nH]c3ccc(N4CCC(NC5CC(C)(C)N(C)C(C)(C)C5)CC4)cc3c2C(C)C)cc1OC [Example 95, N-(1-(2-(3,4-dimethoxyphenyl)-3-isopropyl-1H-indol-5-yl)piperidin-4-yl)-1,2,2,6,6-pentamethylpiperidin-4-amine]
- IC50 (human TLR7): 39 nM
- IC50 (human TLR8): 7.8 nM
- IC50 (human TLR9): 533 nM

Compound: COc1ccc(-c2[nH]c3ccc(N4CCC(C5CCN(Cc6cccn6C)CC5)CC4)cc3c2C(C)C)cc1OC [Example 96, 2-(3,4-dimethoxyphenyl)-3-isopropyl-5-(1′-((1-methyl-1H-pyrrol-2-yl)methyl)-[4,4′-bipiperidin]-1-yl)-1H-indole]
- IC50 (human TLR7): 436 nM
- IC50 (human TLR8): 1050 nM
- IC50 (human TLR9): 2840 nM

Compound: COc1ccc(-c2[nH]c3ccc(N4CCC(C5CCN(CCC(F)(F)F)CC5)CC4)cc3c2C(C)C)cc1OC [Example 97, 2-(3,4-dimethoxyphenyl)-3-isopropyl-5-(1′-(3,3,3-trifluoropropyl)-[4,4′-bipiperidin]-1-yl)-1H-indole]
- IC50 (human TLR7): 862 nM
- IC50 (human TLR8): 1910 nM
- IC50 (human TLR9): 6610 nM

Compound: COc1ccc(-c2[nH]c3ccc(N4CCC(N5CCN(C6CCN(C)CC6)CC5)CC4)cc3c2C(C)C)cc1OC [Example 99, 2-(3,4-dimethoxyphenyl)-3-isopropyl-5-(4-(4-(1-methylpiperidin-4-yl)piperazin-1-yl)piperidin-1-yl)-1H-indole]
- IC50 (human TLR7): 11 nM
- IC50 (human TLR8): 62 nM
- IC50 (human TLR9): 538 nM

Compound: COc1ccc(-c2[nH]c3ccc(N4CCC(N5CCN(CCCN6CCCC6)CC5)CC4)cc3c2C(C)C)cc1OC [Example 102, 2-(3,4-dimethoxyphenyl)-3-isopropyl-5-(4-(4-(3-(pyrrolidin-1-yl)propyl)piperazin-1-yl)piperidin-1-yl)-1H-indole]
- IC50 (human TLR7): 16 nM
- IC50 (human TLR8): 28 nM
- IC50 (human TLR9): 413 nM

Compound: COc1ccc(-c2[nH]c3ccc(NC4CC(C)(C)N(C)C(C)(C)C4)cc3c2C(C)C)cc1OC [Example 103, 2-(3,4-dimethoxyphenyl)-3-isopropyl-N-(1,2,2,6,6-pentamethylpiperidin-4-yl)-1H-indol-5-amine]
- IC50 (human TLR7): 1120 nM
- IC50 (human TLR8): 8.2 nM
- IC50 (human TLR9): 2670 nM

Compound: COc1ccc(-c2[nH]c3ccc(N(C)CC4CCCN4C)cc3c2C(C)C)cc1OC (stereo not drawn) [Example 104, 2-(3,4-dimethoxyphenyl)-3-isopropyl-N-methyl-N-((1-methylpyrrolidin-2-yl)methyl)-1H-indol-5-amine]
- IC50 (human TLR7): 1310 nM
- IC50 (human TLR8): 9.7 nM
- IC50 (human TLR9): 6820 nM
